{"source": "patent US10124008B2", "about": "“Use of inhibitors of acid sphingomyelinase to treat acquired and inherited retinal degenerations” (Wisconsin Alumni Research Foundation, priority 2014, dated 2018)", "type_in_all_cases": "cell-based, porcine", "key": {"primary RPE monolayers [1]": {"system": "primary RPE monolayers", "test": "Reactive oxygen species assay (CELLROX) after 10% NHS", "conditions": "RPE with A2E, short treatment with desipramine", "experimental": "Reactive oxygen species (ROS) generation was measured using […] Deep Red (Molecular Probes, #10422) according to manufacturer's recommendation. After 10% NHS treatment, medium containing NHS was removed and cells were rinsed with HBSS before incubation in 5 μM […] reagent at 37° C. for 30 min. Cells were rinsed 3 times with PBS and fluorescence was read with microplate reader at Ex/Em of 640/665. For normalization purposes, cells were fixed, stained with DAPI, and fluorescence was read at Ex/Em: 360/460."}, "[2]": {"system": "CD59 on polarized primary RPE", "test": "Surface CD59 staining", "conditions": "RPE with A2E; short treatment with desipramine", "experimental": "AlexaFluor secondary antibodies were used at 1:500. Filters were mounted under coverslips on glass slides under VECTASHIELD (Vector labs), sealed and visualized with Andor Revolution XD spinning disk confocal microscope using 60×1.4 NA or 100×1.49 NA oil objectives with identical exposures and gains for each antibody. Quantification of surface CD59 staining was performed using Imaris."}, "[3]": {"system": "EGFP-LC3-labeled autophagosomes in primary RPE", "test": "Live imaging of EGFP-LC3 autophagosome trafficking (spinning disk, Boolean gating)", "conditions": "desipramine 10 μM for 3 h", "experimental": "RPE cells were transfected with EGFP-LC3 or tandem fluorescent mRFP-GFP-LC3 (Addgene) using the AMAXA NUCLEOFECTOR II (Lonza). Approximately 1.5 million cells and 5 μg of plasmid DNA were used for each transfection. Cells were plated either on serum-coated glass-bottom dishes (Mattek) or TRANSWELL filters at confluence. Live imaging of autophagosome traffic and autophagic flux were performed on the Revolution XD spinning disk microscopy system (Andor) equipped with the Yokogawa CSU-X1 confocal spinning disk head, Nikon Eclipse Ti inverted microscope surrounded by an Okolab cage incubator, iXon x3 897 EM-CCD camera, Andor laser combiner with four solid state lasers at 405, 488, 561, and 640 nm and corresponding band-pass filter sets (Sutter), and ASI motorized stage with piezo-Z for rapid Z-stack acquisition. Andor IQ2 software was used for image acquisition and Imaris x64 (Bitplane) for image analysis. For live imaging, cells were serum starved for 2 h to induce autophagy and rapid z-stacks were acquired using the 100×1.49 NA Apo TIRF objective (Nikon) for ˜50 frames at 37° C. Trafficking data was collected from three separate transfections for a total of at least 12-30 movies captured for treatment. During image acquisition care was taken to maintain the same laser power, exposure and electron-multiplying gain settings. Trafficking analysis was carried out using the Spots and Tracks modules of the Imaris software (Liu et al., 2010). After background subtraction (using the background subtraction algorithm and identical automatic threshold for all images) and smoothing (Gaussian algorithm with identical threshold settings for all images), Spots and Tracks algorithms were used to identify vesicles and follow them through time and cell-space to obtain total track length and track displacement. […] Data were analyzed using either a two-tailed t-test or one-way ANOVA followed by Bonferroni or Dunnett's post-tests (GraphPad PRISM). Unless otherwise stated, data are presented as Mean±S.E.M. of ≥3 independent experiments, with 3 to 4 replicates per condition per experiment. […] Regions were defined by: minimum or maximum track length, minimum or maximum displacement and a slope of 0.5 (displacement divided by length). Tracks with slope <0.5 were taken as less straight (region 2) than those with slope of >0.5 (region 3). Tracks within each region are represented as a percent of total number of tracks in Tables 1 and 2. One-way ANOVA or t-tests were used to compare regions between treatment groups. […] To examine the efficiency of autophagosome transport, Spots and Tracks algorithms in Imaris were used to calculate how far each autophagosome traveled (track displacement length) as a function of the movement required to travel that distance (total track length) (Liu et al., 2010)."}, "primary RPE monolayers [4]": {"system": "primary RPE monolayers", "test": "Lysosome exocytosis (surface LAMP2) after 10% normal human serum", "conditions": "RPE with A2E, complement attack; short treatment with desipramine", "experimental": "Cells were rinsed in recording medium (HBSS with 4.5 g/L glucose, 20 mM HEPES) and incubated with ionomycin or […] normal human serum (Quidel) for 10 min at 37° C. Filters were immediately transferred to ice and analyzed for surface LAMP2 or β-hex activity (see below).\nCells were stained with mouse monoclonal antibody to the lumenal domain of Lamp2 (Serotec, MCA2558, 1:500) (48) or C5b-9 (Novus, NBP1-05120, 1:100) at 4° C. for 30 min. The antibody was diluted in PBS supplemented with Ca^2+ and Mg^2++1% BSA. Cells were then fixed with 2% PFA for 5 min on ice, permeabilized, and stained for ZO-1 as detailed above. Alexa-conjugated secondary antibodies (INVITROGEN) were used at 1:500 for 30 min. Cells were imaged by confocal microscopy (Andor Revolution XD) using a 60× 1.4 NA oil objective. For each set of experiments, the laser power, voltage and offset were identical for a given fluorophore. Quantification of Lamp2 staining was performed by obtaining the total fluorescence using the surface tool in Imaris (Bitplane)."}, "[5]": {"system": "acid sphingomyelinase (ASMase)", "test": "ASMase activity in primary RPE (sphingomyelinase fluorimetric assay kit)", "conditions": "desipramine 10 μM for 3 hours", "experimental": "Cells were harvested by trypsinization and cell pellets were washed with PBS to remove residual medium. Cells were lysed in HNTG lysis buffer (50 mM Hepes, pH 7.4, 150 mM NaCl, 10% glycerol, 1.5 mM MgCl2, 1% triton X-100) supplemented with protease inhibitors. Total protein was measured using the DC protein assay kit (BioRad). Cellular cholesterol was quantified using the Amplex Red cholesterol assay kit (INVITROGEN) as detailed previously (Lakkaraju et al., 2007). Single eyecups from wild-type and ABCA4^−/− mice were homogenized in 50 μl of lysis buffer and processed as above. For measuring acid sphingomyelinase activity, cells were lysed in acidic pH and assays were performed using the sphingomyelinase fluorimetric assay kit from Cayman Chemicals according to the manufacturer's protocol."}, "[6]": {"conditions": "percent of total EGFP-LC3 tracks, serum-starved RPE"}}}
{"smiles": "CNCCCN1c2ccccc2CCc2ccccc21", "note": "[desipramine]", "values": [{"measurement": "ROS levels after complement attack", "setting": "primary RPE monolayers [1]", "result": "decreased ROS levels after complement attack"}, {"measurement": "ROS levels after complement attack", "setting": "primary RPE monolayers [1]; listed as Desipramine", "result": "prevented mitochondrial oxidative damage after complement attack"}, {"measurement": "surface CD59 levels", "setting": "[2]", "result": "increased surface CD59 levels"}, {"measurement": "number of motile tracks and long-range displacement of autophagosomes", "setting": "[3]; RPE cells with A2E", "result": "increased both the number of motile tracks and long-range displacement of autophagosomes"}, {"measurement": "Region 1 (R1) (D <2.5 μm, L <10 μm)", "setting": "[3]; [6]", "result": 84.28, "unit": "%"}, {"measurement": "Region 3 (R3) (L >10 μm, Slope >0.5 μm)", "setting": "[3]; [6]", "result": 7.93, "unit": "%"}, {"measurement": "lysosome exocytosis", "setting": "primary RPE monolayers [4]", "result": "restored lysosome exocytosis"}, {"measurement": "ASMase activity", "setting": "[5]", "result": "decreased ASMase activity and ceramide levels"}]}
